Legend:
lipoamide = compound: NC(=O)CCCCC1CCSS1 [lipoamide]; test: thermal stability z-score vs DMSO; higher = more thermally stabilized by treatment; details: HeLa, lipoamide concentration 100 µM
Description: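 Cellular thermal proteome profiling in HeLa cells. Cells were treated with 100 µM lipoamide for 1 h, with or without 1 mM arsenate for a further 1 h, then heated to ten temperatures (37-66.3 °C), and soluble protein was quantified by TMT mass spectrometry relative to 0.1% DMSO controls. The thermal stability score (sum of log2 fold changes minus the abundance score) was transformed to a z-score; mean of n = 3 experiments.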

potassium arsenate = compound: O=[As]([O-])(O)O.[K+] [potassium arsenate]; test: as above; details: HeLa; arsenate concentration 1 mM
Description: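 Cellular thermal proteome profiling in HeLa cells treated with 1 mM arsenate for 1 h (DMSO pretreatment), heated to ten temperatures (37-66.3 °C). Soluble protein was quantified by TMT mass spectrometry relative to DMSO controls; the thermal stability score was transformed to a z-score; mean of n = 3 experiments.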

[1] = arsenate co-treatment: 1 mM arsenate 1 h
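Note: each temperature applied for 3 min, abundance score taken as mean log2 fold change at the two lowest temperatures, z-score obtained by mean subtraction and division by SD.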

Sequence of UniProt Q9NXV6 (Q9NXV6 whole entry): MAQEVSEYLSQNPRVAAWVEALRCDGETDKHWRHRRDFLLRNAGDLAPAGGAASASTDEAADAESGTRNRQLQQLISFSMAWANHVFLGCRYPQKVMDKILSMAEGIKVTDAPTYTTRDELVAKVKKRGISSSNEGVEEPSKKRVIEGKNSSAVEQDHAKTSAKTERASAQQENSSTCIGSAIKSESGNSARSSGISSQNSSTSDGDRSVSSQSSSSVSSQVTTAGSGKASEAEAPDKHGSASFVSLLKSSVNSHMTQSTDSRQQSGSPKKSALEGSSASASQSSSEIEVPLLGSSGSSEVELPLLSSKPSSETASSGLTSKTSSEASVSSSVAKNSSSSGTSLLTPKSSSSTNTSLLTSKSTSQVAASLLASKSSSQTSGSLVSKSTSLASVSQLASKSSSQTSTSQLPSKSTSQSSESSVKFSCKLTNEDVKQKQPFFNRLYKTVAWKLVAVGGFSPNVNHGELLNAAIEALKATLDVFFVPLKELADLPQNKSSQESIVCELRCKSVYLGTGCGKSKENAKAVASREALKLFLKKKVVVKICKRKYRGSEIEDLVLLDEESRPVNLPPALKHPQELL
Sequence of UniProt Q96JM3 (Q96JM3 whole entry): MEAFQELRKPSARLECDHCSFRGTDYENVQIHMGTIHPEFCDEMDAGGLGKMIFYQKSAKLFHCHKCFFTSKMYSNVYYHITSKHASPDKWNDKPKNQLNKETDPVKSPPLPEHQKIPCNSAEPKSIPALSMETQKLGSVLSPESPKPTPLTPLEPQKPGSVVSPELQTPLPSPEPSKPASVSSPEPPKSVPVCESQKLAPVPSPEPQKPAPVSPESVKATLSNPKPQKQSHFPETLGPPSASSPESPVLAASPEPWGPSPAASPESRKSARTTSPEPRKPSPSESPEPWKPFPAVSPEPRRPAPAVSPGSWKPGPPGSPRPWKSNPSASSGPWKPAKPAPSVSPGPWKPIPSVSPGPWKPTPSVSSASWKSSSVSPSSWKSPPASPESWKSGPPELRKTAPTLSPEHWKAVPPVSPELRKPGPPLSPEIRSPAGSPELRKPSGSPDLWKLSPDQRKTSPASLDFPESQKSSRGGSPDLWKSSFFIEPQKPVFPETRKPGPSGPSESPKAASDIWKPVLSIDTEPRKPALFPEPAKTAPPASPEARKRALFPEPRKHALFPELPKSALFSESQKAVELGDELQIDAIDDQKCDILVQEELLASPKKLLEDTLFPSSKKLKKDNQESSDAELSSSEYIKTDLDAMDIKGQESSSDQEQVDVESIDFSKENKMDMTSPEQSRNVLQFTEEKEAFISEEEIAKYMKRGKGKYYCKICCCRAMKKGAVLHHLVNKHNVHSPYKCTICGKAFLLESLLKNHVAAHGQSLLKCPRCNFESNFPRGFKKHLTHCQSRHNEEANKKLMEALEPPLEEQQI
Sequence of UniProt Q3L8U1 (Q3L8U1 whole entry): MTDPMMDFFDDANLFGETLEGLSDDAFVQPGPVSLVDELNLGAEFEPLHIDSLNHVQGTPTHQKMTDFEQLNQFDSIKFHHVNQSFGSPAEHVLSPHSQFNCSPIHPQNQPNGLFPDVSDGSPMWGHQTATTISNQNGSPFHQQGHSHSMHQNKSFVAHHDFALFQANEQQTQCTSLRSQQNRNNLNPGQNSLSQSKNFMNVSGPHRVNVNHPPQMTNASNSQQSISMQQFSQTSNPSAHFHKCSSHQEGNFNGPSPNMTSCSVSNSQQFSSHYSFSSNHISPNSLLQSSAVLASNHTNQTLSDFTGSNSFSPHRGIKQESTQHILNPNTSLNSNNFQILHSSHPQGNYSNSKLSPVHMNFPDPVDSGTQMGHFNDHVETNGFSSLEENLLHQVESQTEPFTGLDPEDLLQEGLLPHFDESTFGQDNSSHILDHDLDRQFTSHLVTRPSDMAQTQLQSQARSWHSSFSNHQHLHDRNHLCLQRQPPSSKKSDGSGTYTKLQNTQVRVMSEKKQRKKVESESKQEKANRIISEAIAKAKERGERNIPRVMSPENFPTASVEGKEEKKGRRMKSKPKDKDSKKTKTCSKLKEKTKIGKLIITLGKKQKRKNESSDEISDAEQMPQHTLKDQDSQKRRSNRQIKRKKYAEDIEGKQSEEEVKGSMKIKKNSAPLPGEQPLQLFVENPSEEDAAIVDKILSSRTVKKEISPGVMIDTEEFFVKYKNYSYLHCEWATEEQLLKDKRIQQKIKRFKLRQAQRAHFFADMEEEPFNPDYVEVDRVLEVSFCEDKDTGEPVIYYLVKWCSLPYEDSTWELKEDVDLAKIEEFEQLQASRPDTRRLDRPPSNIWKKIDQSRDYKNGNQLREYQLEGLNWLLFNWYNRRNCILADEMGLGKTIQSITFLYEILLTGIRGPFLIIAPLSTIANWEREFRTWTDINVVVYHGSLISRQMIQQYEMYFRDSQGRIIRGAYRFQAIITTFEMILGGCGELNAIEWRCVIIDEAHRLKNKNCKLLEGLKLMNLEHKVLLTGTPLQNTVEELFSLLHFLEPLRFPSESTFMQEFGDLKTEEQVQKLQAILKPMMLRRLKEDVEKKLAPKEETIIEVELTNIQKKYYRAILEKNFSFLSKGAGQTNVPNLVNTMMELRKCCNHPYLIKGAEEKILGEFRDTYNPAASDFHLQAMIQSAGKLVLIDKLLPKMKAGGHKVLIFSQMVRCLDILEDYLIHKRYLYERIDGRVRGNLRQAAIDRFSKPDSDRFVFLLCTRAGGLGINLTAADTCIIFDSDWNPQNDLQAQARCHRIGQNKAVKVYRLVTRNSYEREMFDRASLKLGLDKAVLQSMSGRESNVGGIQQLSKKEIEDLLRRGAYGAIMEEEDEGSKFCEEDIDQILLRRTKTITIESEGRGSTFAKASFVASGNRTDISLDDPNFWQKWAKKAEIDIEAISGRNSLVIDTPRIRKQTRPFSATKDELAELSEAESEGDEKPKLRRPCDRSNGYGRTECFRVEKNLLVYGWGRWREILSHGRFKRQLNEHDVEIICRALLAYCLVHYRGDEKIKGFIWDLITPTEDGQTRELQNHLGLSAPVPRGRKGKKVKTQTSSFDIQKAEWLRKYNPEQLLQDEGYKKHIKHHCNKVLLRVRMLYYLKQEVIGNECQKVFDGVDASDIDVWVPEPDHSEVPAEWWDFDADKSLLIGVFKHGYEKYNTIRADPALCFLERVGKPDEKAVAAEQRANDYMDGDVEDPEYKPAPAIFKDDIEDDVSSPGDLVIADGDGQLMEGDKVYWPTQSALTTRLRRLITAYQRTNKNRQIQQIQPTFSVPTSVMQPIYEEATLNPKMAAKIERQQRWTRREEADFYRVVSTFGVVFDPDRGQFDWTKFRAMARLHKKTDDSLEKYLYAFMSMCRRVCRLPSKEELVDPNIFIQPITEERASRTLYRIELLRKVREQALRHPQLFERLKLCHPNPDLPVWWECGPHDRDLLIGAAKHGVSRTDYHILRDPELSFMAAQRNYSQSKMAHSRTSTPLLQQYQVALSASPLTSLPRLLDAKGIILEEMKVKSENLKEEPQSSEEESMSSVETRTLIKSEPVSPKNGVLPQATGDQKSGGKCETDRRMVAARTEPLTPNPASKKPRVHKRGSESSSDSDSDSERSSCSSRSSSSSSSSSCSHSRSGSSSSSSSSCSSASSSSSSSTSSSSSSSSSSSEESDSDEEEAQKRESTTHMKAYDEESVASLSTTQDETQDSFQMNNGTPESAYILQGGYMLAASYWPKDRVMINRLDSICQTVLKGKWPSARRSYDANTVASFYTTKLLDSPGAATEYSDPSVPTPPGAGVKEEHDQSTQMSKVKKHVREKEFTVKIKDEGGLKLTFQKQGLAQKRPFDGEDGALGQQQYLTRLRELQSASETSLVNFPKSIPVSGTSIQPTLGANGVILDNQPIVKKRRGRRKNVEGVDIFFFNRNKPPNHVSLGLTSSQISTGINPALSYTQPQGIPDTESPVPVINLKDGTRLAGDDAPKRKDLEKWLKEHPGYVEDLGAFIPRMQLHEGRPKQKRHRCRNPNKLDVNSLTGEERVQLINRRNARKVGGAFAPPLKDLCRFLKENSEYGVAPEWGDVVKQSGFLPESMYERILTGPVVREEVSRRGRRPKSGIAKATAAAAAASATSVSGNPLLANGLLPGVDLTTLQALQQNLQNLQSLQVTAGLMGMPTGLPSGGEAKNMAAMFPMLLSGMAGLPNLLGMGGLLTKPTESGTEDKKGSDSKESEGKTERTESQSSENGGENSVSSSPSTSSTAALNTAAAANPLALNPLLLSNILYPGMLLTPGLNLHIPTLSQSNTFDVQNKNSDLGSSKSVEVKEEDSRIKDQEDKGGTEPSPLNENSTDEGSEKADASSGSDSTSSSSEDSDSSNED
Sequence of UniProt Q8WUX2 (Q8WUX2 whole entry): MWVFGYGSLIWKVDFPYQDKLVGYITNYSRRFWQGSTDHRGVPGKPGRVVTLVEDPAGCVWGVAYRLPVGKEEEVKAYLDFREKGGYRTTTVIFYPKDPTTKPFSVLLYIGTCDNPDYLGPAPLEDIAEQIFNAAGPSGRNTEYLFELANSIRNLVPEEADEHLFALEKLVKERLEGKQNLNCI
Sequence of UniProt Q9Y281 (Q9Y281 whole entry): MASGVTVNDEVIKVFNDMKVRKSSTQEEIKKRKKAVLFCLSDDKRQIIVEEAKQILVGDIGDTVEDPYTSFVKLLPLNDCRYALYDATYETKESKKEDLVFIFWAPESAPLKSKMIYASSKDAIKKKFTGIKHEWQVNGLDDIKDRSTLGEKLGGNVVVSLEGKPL
Sequence of UniProt Q53EZ4 (Q53EZ4 whole entry): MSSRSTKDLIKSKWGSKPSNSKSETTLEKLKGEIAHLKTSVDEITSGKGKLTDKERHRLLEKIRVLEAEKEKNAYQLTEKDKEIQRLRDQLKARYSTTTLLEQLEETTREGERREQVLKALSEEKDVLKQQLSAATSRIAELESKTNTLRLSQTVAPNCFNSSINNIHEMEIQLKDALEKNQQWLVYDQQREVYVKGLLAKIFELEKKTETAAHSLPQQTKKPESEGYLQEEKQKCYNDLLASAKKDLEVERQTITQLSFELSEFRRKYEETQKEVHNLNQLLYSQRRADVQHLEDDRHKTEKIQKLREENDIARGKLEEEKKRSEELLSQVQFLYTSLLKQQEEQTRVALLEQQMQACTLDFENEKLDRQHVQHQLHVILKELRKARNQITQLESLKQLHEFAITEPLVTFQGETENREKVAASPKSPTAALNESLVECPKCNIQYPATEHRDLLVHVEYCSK

| Target | thermal stability z-score (lipoamide; [1]) | thermal stability z-score (lipoamide; arsenate co-treatment: none) | thermal stability z-score (potassium arsenate) |
| --- | --- | --- | --- |
| CDK17 (UniProt Q00537) | 1.07 | 0.395 | -0.0969 |
| CDKAL1 (UniProt Q5VV42) | 1.09 | 0.835 | -0.903 |
| CDKN2A | 0.99 | 1.64 | 0.466 |
| CDKN2AIP (UniProt Q9NXV6) | 0.446 | 0.454 | -0.347 |
| CDR2 (UniProt Q01850) | 0.134 | 0.141 | 0.139 |
| CDR2L (UniProt Q86X02) | 0.891 | 0.86 | -0.419 |
| CDS2 (UniProt O95674) | -0.807 | -0.975 | -0.43 |
| CDV3 (UniProt Q9UKY7) | 0.669 | 0.83 | 0.683 |
| CDYL (UniProt Q9Y232) | 2.68 | 1.28 | 0.0814 |
| CEBPB (UniProt P17676) | -0.261 | -1.23 | -0.856 |
| CEBPZ (UniProt Q03701) | 0.161 | -0.141 | -1.01 |
| CEBPZOS (UniProt A8MTT3) | 0.351 | 0.365 | 0.526 |
| CECR5 (UniProt Q9BXW7) | -0.169 | 0.0959 | 0.99 |
| CELF1 (UniProt Q92879) | -1.1 | -0.66 | -0.593 |
| CELSR2 (UniProt Q9HCU4) | -1.53 | -2.3 | -0.894 |
| CENPE (UniProt Q02224) | 0.141 | 0.088 | 0.013 |
| CENPF (UniProt P49454) | 0.439 | -0.0287 | 1.73 |
| CENPH (UniProt Q9H3R5) | -0.976 | 0.153 | 0.184 |
| CENPV (UniProt Q7Z7K6) | 0.172 | 0.192 | -0.0535 |
| CEP41 (UniProt Q9BYV8) | -0.0855 | -0.44 | -0.106 |
| CEP44 (UniProt Q9C0F1) | 0.18 | 0.0577 | 0.0867 |
| CEP55 (UniProt Q53EZ4) | -0.129 | -0.0226 | -0.0317 |
| CEP76 (UniProt Q8TAP6) | -0.336 | 0.197 | -1.36 |
| CEP78 (UniProt Q5JTW2) | -0.104 | -0.0338 | -0.165 |

| Target | thermal stability z-score (lipoamide; [1]) | thermal stability z-score (lipoamide; arsenate co-treatment: none) | thermal stability z-score (potassium arsenate) |
| --- | --- | --- | --- |
| CEP83 (UniProt Q9Y592) | 0.829 | 1.19 | -0.498 |
| CEP85 (UniProt Q6P2H3) | -0.00805 | 0.112 | -0.118 |
| CEP97 (UniProt Q8IW35) | -0.477 | 0.495 | -0.411 |
| CEP131 (UniProt Q9UPN4) | -0.287 | -0.195 | 0.215 |
| CEP152 (UniProt O94986) | -0.185 | -0.184 | 0.269 |
| CEP170 (UniProt Q5SW79) | -0.0596 | -0.496 | 1.21 |
| CEP170B (UniProt Q9Y4F5) | -0.0863 | -0.0862 | -0.201 |
| CEP192 (UniProt Q8TEP8) | -0.251 | -0.467 | 0.0297 |
| CEP250 (UniProt Q9BV73) | 0.0869 | 0.182 | 0.0828 |
| CEP290 (UniProt O15078) | 0.613 | 0.238 | 0.0798 |
| CEP350 (UniProt Q5VT06) | -0.154 | -0.182 | -0.0541 |
| CEPT1 (UniProt Q9Y6K0) | 0.685 | 0.4 | 0.959 |
| CERCAM (UniProt Q5T4B2) | -0.0616 | -0.543 | -0.44 |
| CERS2 (UniProt Q96G23) | -0.901 | -1.12 | -0.575 |
| CETN2 (UniProt P41208) | 0.767 | 0.569 | 0.798 |
| CETN3 (UniProt O15182) | 1.25 | 1.49 | 1.71 |
| CFAP20 (UniProt Q9Y6A4) | 0.686 | -0.433 | 1.07 |
| CFAP36 (UniProt Q96G28) | 0.177 | 0.267 | 0.177 |
| CFAP97 (UniProt Q9P2B7) | -1 | -0.518 | -0.864 |
| CFDP1 (UniProt Q9UEE9) | 0.254 | 0.185 | -0.21 |
| CFL1 (UniProt P23528) | 0.501 | 0.449 | -0.362 |
| CFL2 (UniProt Q9Y281) | 0.497 | 0.000804 | -0.466 |
| CGGBP1 (UniProt Q9UFW8) | -0.266 | -0.574 | -0.0749 |
| CHAC2 (UniProt Q8WUX2) | -0.0361 | 0.0338 | 0.455 |

| Target | thermal stability z-score (lipoamide; [1]) | thermal stability z-score (lipoamide; arsenate co-treatment: none) | thermal stability z-score (potassium arsenate) |
| --- | --- | --- | --- |
| CHAF1A (UniProt Q13111) | 0.0368 | 0.138 | -0.0415 |
| CHAF1B (UniProt Q13112) | 1.3 | 1.08 | 1.29 |
| CHAMP1 (UniProt Q96JM3) | -0.202 | -0.497 | -0.567 |
| CHCHD1 (UniProt Q96BP2) | 0.43 | 0.138 | -0.0935 |
| CHCHD2 (UniProt Q9Y6H1) | 1.56 | 1.34 | 0.592 |
| CHCHD3 (UniProt Q9NX63) | 0.334 | 0.581 | 0.417 |
| CHCHD4 (UniProt Q8N4Q1) | 0.0185 | 0.497 | -0.236 |
| CHCHD6 (UniProt Q9BRQ6) | 0.209 | 0.536 | -0.66 |
| CHD1 (UniProt O14646) | -0.0735 | 0.209 | -0.504 |
| CHD1L (UniProt Q86WJ1) | -0.114 | -0.0149 | -0.109 |
| CHD3 (UniProt Q12873) | 0.00382 | -0.131 | -0.306 |
| CHD4 (UniProt Q14839) | 0.305 | 0.561 | -0.759 |
| CHD6 (UniProt Q8TD26) | -8.33e-05 | -0.00133 | -0.0483 |
| CHD8 (UniProt Q9HCK8) | -0.13 | -0.00227 | 0.147 |
| CHD9 (UniProt Q3L8U1) | -0.0359 | -0.0662 | 0.384 |
| CHEK1 (UniProt O14757) | 0.0611 | -0.137 | -0.526 |
| CHEK2 (UniProt O96017) | -0.0379 | -0.222 | -0.161 |
| CHERP (UniProt Q8IWX8) | 0.00336 | 0.0908 | -0.107 |
| CHID1 (UniProt Q9BWS9) | -3.11 | -1.7 | 1.18 |
| CHKA (UniProt P35790) | 0.498 | 0.357 | -1.4 |
| CHM (UniProt P24386) | 0.191 | 0.152 | -0.22 |
| CHML (UniProt P26374) | 0.57 | 0.276 | -0.161 |
| CHMP1A (UniProt Q9HD42) | 0.125 | 0.254 | 0.38 |

— the supplement of paper PMC12463676, “Small-molecule dissolution of stress granules by redox modulation benefits ALS models” (Nature Chemical Biology, 2025)
